In patent US9062014B2, “Crystalline forms of (R)-5-[3-chloro-4-(2,3-dihydroxy-propoxy)-benz[Z]ylidene]-2-([Z]-propylimino)-3-0-tolyl-thiazolidin-4-one” (ACTELION PHARMACEUTICALS LTD., priority 2008, dated 2015):

Assay: Hygroscopicity by gravimetric vapour sorption (GVS)
Type: physicochemical
Details: 25° C.; for Hygroscopicity classification according to the European Pharmacopea Technical Guide (1999 edition): mass change between 40% and 80% relative humidity, first adsorption scan; for mass gain: mass change between 40% relative humidity and 80% relative humidity in the first adsorption scan
Description: Gravimetric Vapour Sorption (GVS)
Sorption isotherms are obtained using a Hiden IGASorp moisture sorption analyser, controlled by CFRSorp software. The sample temperature is maintained at 25° C. by a Huber re-circulating water bath. The humidity is controlled by mixing streams of dry and wet nitrogen, with a total flow rate of 250 ml·min^−1. The relative humidity is measured by a calibrated Vaisala RH probe (dynamic range of 0-95% RH), located near the sample. The weight change of the sample as a function of % RH is constantly monitored by the microbalance (accuracy±0.001 mg).
Typically 10-20 mg of sample is placed in a tared mesh stainless steel basket under ambient conditions. The sample is loaded and unloaded at 40% RH and 25° C. (typical room conditions).
A moisture sorption isotherm is performed as outlined below (2 scans giving 1 complete cycle). The standard isotherm is performed at 25° C. at 10% RH intervals over a 0-90% RH range.
The software uses a least squares minimisation procedure together with a model of the mass relaxation, to predict an asymptotic value. The measured mass relaxation value must be within 5% of that predicted by the software, before the next % RH value is selected. The minimum equilibration time is set to 1 hour and the maximum to 4 hours.
Classification is done according to the European Pharmacopea Technical Guide (1999 edition) (e.g. slightly hygroscopic: increase in mass is less than 2% and equal to or greater than 0.2% mass/mass; hygroscopic: increase in mass is less than 15% and equal to or greater than 2% mass/mass). The mass change between 40% relative humidity and 80% relative humidity in the first adsorption scan is considered.

Row | mass gain | SMILES | Hygroscopicity classification according to the European Pharmacopea Technical Guide (1999 edition)
1 | 2.1% | CCC/N=C1\S/C(=C\c2ccc(OC[C@H](O)CO)c(Cl)c2)C(=O)N1c1ccccc1C [Amorphous, (R)-5-[3-chloro-4-(2,3-dihydroxy-propoxy)-benz[Z]ylidene]-2-([Z]-propylimino)-3-o-tolyl-thiazolidin-4-one] | Hygroscopic (hygroscopic: increase in mass is less than 15% and equal to or greater than 2% mass/mass)
2 | < 0.2% | CCC/N=C1\S/C(=C\c2ccc(OC[C@H](O)CO)c(Cl)c2)C(=O)N1c1ccccc1C [Form C, (R)-5-[3-chloro-4-(2,3-dihydroxy-propoxy)-benz[Z]ylidene]-2-([Z]-propylimino)-3-o-tolyl-thiazolidin-4-one] | Non-hygroscopic
3 | < 0.2% | CCC/N=C1\S/C(=C\c2ccc(OC[C@H](O)CO)c(Cl)c2)C(=O)N1c1ccccc1C [Form A, (R)-5-[3-chloro-4-(2,3-dihydroxy-propoxy)-benz[Z]ylidene]-2-([Z]-propylimino)-3-o-tolyl-thiazolidin-4-one] | Non-hygroscopic
4 | 0.2% | CCC/N=C1\S/C(=C\c2ccc(OC[C@H](O)CO)c(Cl)c2)C(=O)N1c1ccccc1C [Form II, (R)-5-[3-chloro-4-(2,3-dihydroxy-propoxy)-benz[Z]ylidene]-2-([Z]-propylimino)-3-o-tolyl-thiazolidin-4-one] | Slightly hygroscopic (slightly hygroscopic: increase in mass is less than 2% and equal to or greater than 0.2% mass/mass)
